Reference: US4748172A, “3-bicyclicpyridinium-methyl cephalosporins” (Eli Lilly and Company, priority 1987, dated 1988)
≈ marks a conversion by molar mass, not a printed value.

Experiments:
Assay type in all cases: cell-based
Staph. aureus X400 = assay: Agar dilution MIC; conditions: Staphylococcus aureus
Staph. aureus S13E = assay: microbe, parasite or virus in culture; conditions: Staphylococcus aureus
Strep. D 9960 = assay: Agar dilution MIC
Klebsiella X68 = assay: Agar dilution MIC
Pseudomonas X239 = assay: Agar dilution MIC; conditions: strain X239
Excerpt: (§1) The antibacterial activity of several representative compounds of the invention has been evaluated in standard in vitro agar dilution assays. The following Table presents typical minimum inhibitory concentrations (MIC's) in μg/ml for exemplary compounds when evaluated against typical Gram+and Gram-microorganism.
(§2) Agar Dilution MIC (μg/ml)

Pseudomonas X528 = assay: Agar dilution MIC; conditions: strain X528
Excerpt: as §1, §2

Staph. epi EPI1 = assay: Agar dilution MIC; conditions: strain EPI1
Staph. aureus V41 = assay: Agar dilution MIC; conditions: Staphylococcus aureus, strain V41

`CO/N=C(\C(=O)N[C@@H]1C(=O)N2C(C(=O)[O-])=C(C[n+]3cccc4nc(N)sc43)CS[C@H]12)c1csc(N)n1` [Example 15, syn-7-[2-(2-aminothiazol-4-yl)-2-methoxyiminoacetamido]-3-(2-aminothiazolo[5,4-b]pyridinium-4-ylmethyl)-3-cephem-4-carboxylate] was tested, and the MIC (Staph. aureus X400) was 32 µg/mL (≈ 58.5 µM), the MIC (Staph. aureus S13E) was 4 µg/mL (≈ 7.32 µM) and the MIC (Strep. D 9960) was 8 µg/mL (≈ 14.6 µM). The MIC (Klebsiella X68) was 4 µg/mL (≈ 7.32 µM), the MIC (Pseudomonas X239) was 2 µg/mL (≈ 3.66 µM) and the MIC (Pseudomonas X528) was 1 µg/mL (≈ 1.83 µM). It also gave an MIC (Staph. epi EPI1) of 2 µg/mL (≈ 3.66 µM) and an MIC (Staph. aureus V41) of 2 µg/mL (≈ 3.66 µM).
